Read-outs that look alike come from different tables or passages of the source. Bridge positions count the residues as written; N and C are the ends. Square brackets hold non-standard residues; d marks the D form. Peptide text beside a SMILES is read from it. hArg = N=C(N)NCCCC[C@H](N)C(=O)O; Mpa = O=C(O)CCS Bounds are passed on as bounds.

One data set deals with T1, αvβ3 integrin (Homo sapiens, UniProt P05106+P06756).
T1 construct: purchased Millipore
Briefly: Yeast-displayed AgTx constructs binding to αvβ3 integrin. As to conditions: 10 nM αvβ3, the lowest concentration tested. The method, then:
The yeast library was grown in selective media (SD-CAA, 20 g/L glucose, 6.7 g/L yeast nitrogen base without amino acids, 5.4 g/L Nα2HPO4, 8.6 g/L NaH2PO4.H2O, and 5 g/L Bacto casamino acids) and induced in selective media containing galactose (SG-CAA). For library screening, 5 to 25×10^6 yeast (depending on the sort round) were labeled with detergent-solubilized integrin and a 1:250 dilution of chicken anti-c-myc IgY (Invitrogen) in integrin binding buffer (IBB, 20 mM Tris pH 7.5 with 1 mM MgCl2, 1 mM MnCl2, 2 mM CaCl2, 100 mM NaCl, and 1 mg/mL bovine serum albumin) at room temperature for 2 h. The yeast cells were centrifuged at 4° C. and the supernatant was removed by aspiration. The yeast were then resuspended in ice-cold BPBS (PBS containing 1 mg/mL bovine serum albumen) containing a 1:100 dilution of phycoerythrin-conjugated goat anti-chicken IgY secondary antibody (Santa Cruz Biotechnology) and a 1:25 dilution of either fluorescein-conjugated anti-αvβ3 antibody (Biolegend) or fluorescein-conjugated anti-αIIb antibody (Biolegend), as appropriate. After incubation for 20 min on ice, the yeast were centrifuged, aspirated, and stored as pellets on ice until cell sorting. Yeast library screening was performed using a Becton Dickinson FACS Vantage SE instrument (Stanford FACS Core Facility) and CellQuest software. […]

Data set [1] addresses T2, αIIbβ3 integrin (K562-αIIbβ3 cells) (Homo sapiens, UniProt P05106+P08514).
T2 construct: expressed in transfected cells; host or cells: K562 leukemia cells (from S. Blystone)
Put plainly: Cell binding assay on K562-αIIbβ3 cells (flow cytometry). Particulars: K562-αIIbβ3 versus K562-αvβ3 cells. As for the experimental part:
K562 cells stably expressing αIIbβ3, αvβ3, or αvβ5 were obtained from S. Blystone and maintained in IMDM media (Gibco) containing 10% FBS and 1.0 mg/mL geneticin. For binding assays, 10^5 cells were suspended in IBB, and varying concentrations of AgRP peptides were added. After 3 hour incubation at 4° C., the cells were centrifuged, aspirated, and resuspended in ice-cold BPBS containing a 1:20 dilution of fluorescein-conjugated goat anti-His antibody (Bethyl) for […]. The cells were then centrifuged, aspirated, and stored as pellets on ice until analysis by flow cytometry using a BD FACS Caliber instrument Becton Dickinson. Binding data was analyzed with FlowJo (Treestar, Inc.) and data was fit to sigmoidal plots using Kaleidagraph (Synergy Software) to calculate equilibrium dissociation constants. Experiments were performed at least 3 times and data are presented as average values with standard deviations.
To determine the integrin binding affinities and specificities of the engineered AgRP peptides, direct binding assays were performed using K562 leukemia cells that have been transfected to stably express different integrin receptors See J. Cell Biol. 127(4) (1994). Cells were incubated in the presence of varying concentrations of AgRP peptides at 4° C., to minimize receptor internalization, followed by staining with a fluorescein-conjugated anti-hexahistidine antibody and analysis by flow cytometry. Equilibrium dissociation constants (KD values) were determined by plotting AgRP peptide concentration (log scale) versus normalized mean fluorescence intensity, then fitting the data to a sigmoidal curve.

The test system of another data set is human platelets. As to conditions: for IC50: read-out: aggregation (IC50; nM) human platelets, platelets activated with 25 μM ADP, A365 end point over 1 h. As for the experimental part:
Human platelets isolated by pheresis were obtained from the Stanford Blood Center and stored in serum with 7% acid/citrate/dextrose (ACD) solution. Prior to use, the platelets were centrifuged, aspirated, washed once with Tyrode's buffer (140 mM NaCl, 3 mM KCl, 12 mM NaHCO3, 0.4 mM NaH2PO4, 2 mM MgCl2, 0.1% glucose, pH 7.4), and counted using a haemacytometer. Counted platelets were resuspended in fresh plasma to a final concentration of approximately 2.8×10^8 cells/mL. 180 μL of the platelet solution, or approximately 5×10^7 platelets, were added to separate wells in a 96-well microtiter plate. AgRP peptide or eptifibatide (Cell Sciences) were added to the wells at varying concentrations, after which the platelets were activated with 25 μM ADP. Absorbance at 365 nm was monitored over 1 hr using a Synergy 4 microplate reader (BioTek Instrumentation) with readings taken every 35 s, with 3 s of shaking between readings. […] Experiments were performed at least 3 times.
Next, the effects of the engineered AgRP peptides on αIIbβ3-mediated platelet aggregation were studied. Three αIIbβ3-specific peptides (2bA, 2bJ, and 2bO) and two β3-specific peptides (b3A and b3I) were tested again. […] Microtiter plates containing platelets in serum in the presence or absence of AgRP peptides were activated using ADP at a final concentration of 25 μM, and absorbance at 365 nm was monitored over 1 h.

In the next data set the target is αIIbβ3 integrin (Homo sapiens, UniProt P05106+P08514). Particulars: clinical use; cited from earlier work.
For data set [2] the following is noted: cited from earlier work; for bleeding in patients: clinical use.
Data set [3] concerns αvβ3 integrin and the leukocyte integrin Mac-1. Particulars: cited from earlier work.
Data set [4] concerns ADP-induced platelet aggregation. As to conditions: clinical use; cited from earlier work.

T1 sequence (P06756 31-889 limits assumed): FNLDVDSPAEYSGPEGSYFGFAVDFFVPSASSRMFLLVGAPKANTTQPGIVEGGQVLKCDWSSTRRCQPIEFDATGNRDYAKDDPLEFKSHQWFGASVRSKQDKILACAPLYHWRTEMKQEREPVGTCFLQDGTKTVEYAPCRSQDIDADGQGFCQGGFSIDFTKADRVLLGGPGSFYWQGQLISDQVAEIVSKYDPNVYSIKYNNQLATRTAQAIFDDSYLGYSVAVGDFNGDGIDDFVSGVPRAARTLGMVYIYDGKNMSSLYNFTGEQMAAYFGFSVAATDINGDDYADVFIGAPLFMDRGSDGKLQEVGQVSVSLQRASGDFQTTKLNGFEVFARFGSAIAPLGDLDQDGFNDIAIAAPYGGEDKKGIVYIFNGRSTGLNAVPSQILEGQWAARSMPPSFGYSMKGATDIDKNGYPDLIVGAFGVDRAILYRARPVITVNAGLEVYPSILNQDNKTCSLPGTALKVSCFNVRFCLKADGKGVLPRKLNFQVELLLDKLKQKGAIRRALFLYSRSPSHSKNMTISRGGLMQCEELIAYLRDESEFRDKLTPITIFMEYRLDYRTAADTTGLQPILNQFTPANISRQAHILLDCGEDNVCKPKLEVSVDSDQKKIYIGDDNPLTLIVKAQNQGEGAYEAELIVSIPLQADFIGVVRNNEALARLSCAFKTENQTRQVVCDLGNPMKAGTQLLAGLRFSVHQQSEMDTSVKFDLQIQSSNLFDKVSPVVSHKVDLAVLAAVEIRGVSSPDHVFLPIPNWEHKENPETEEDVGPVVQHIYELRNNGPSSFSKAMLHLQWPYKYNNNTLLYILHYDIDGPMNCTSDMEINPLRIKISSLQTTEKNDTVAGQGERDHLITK
T1 sequence (P06756 891-1048 partner limits assumed): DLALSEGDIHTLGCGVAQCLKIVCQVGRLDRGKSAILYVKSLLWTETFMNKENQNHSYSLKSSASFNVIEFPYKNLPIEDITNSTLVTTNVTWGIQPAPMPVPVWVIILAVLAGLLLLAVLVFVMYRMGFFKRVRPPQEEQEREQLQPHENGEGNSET
T1 sequence (P05106 27-788): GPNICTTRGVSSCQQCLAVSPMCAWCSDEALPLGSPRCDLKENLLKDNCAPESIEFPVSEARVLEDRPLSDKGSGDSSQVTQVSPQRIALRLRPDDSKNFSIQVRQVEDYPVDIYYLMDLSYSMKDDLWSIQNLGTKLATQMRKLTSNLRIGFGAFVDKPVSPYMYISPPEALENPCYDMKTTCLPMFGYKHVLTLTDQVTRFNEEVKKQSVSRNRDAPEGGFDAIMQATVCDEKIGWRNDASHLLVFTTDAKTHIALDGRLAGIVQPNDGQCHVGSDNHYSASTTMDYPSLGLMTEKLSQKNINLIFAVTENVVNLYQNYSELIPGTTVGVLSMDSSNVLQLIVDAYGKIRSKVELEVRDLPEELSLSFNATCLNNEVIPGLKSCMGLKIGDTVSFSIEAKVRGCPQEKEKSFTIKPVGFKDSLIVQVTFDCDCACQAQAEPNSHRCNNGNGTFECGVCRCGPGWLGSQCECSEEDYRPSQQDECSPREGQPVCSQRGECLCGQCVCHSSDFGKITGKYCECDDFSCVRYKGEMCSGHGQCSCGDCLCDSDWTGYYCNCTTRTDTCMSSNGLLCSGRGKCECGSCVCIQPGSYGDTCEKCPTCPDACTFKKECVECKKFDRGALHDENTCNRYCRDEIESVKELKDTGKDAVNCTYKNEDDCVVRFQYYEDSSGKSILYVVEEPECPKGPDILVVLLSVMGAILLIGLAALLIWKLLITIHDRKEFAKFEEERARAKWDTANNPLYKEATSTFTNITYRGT

On to “GCIAEDYGRCTWGGTPCCRGRGCICSGRGDNDLVCECT [AgTx2-7A, AgRP 7A loop 4 grafted into AgTx consensus 2]”, for which the “binding to αvβ3 integrin on yeast surface” value with αvβ3 integrin is listed as “Binding was observed at 10 nM αvβ3”.

As to `CC(C)C[C@@H]1NC(=O)[C@@H]2CSSC[C@@H]3NC(=O)[C@H]([C@@H](C)O)NC(=O)[C@H](C)NC(=O)[C@H](C)NC(=O)[C@@H]4CCCN4C(=O)[C@H](CC(=O)O)NC(=O)[C@H](CSSC[C@H](NC(=O)CNC(=O)[C@H](CCCNC(=N)N)NC(=O)[C@@H]4CCCN4C(=O)[C@H](CCCCN)NC(=O)[C@H](CC(=O)O)NC(=O)[C@H](CC(=O)O)NC(=O)[C@H](CC(=O)O)NC(=O)[C@H](CC(=O)O)NC(=O)[C@H](CCCCN)NC(=O)[C@H](Cc4ccc(O)cc4)NC(=O)[C@H](CC(=O)O)NC(=O)[C@@H](NC(=O)[C@@H](N)Cc4ccc(O)cc4)C(C)C)C(=O)N[C@@H](C(C)C)C(=O)N[C@@H](CCCNC(=N)N)C(=O)N[C@@H](CC(C)C)C(=O)N[C@@H](Cc4c[nH]cn4)C(=O)N[C@@H](CCC(=O)O)C(=O)N[C@@H](CO)C(=O)N2)NC(=O)[C@H](CSSC[C@@H](C(=O)N[C@@H](CCCNC(=N)N)C(=O)N[C@H](C(=O)N[C@@H](CCCNC(=N)N)C(=O)N[C@@H](Cc2c[nH]cn2)C(=O)N[C@@H](Cc2c[nH]cn2)C(=O)N[C@@H](Cc2c[nH]cn2)C(=O)N[C@@H](Cc2c[nH]cn2)C(=O)N[C@@H](Cc2c[nH]cn2)C(=O)N[C@@H](Cc2c[nH]cn2)C(=O)O)[C@@H](C)O)NC(=O)[C@H](Cc2ccc(O)cc2)NC(=O)[C@@H]2CSSC[C@H](NC(=O)[C@H](Cc4ccc(O)cc4)NC3=O)C(=O)N[C@@H](CCCNC(=N)N)C(=O)NCC(=O)N[C@@H](CCCNC(=N)N)C(=O)NCC(=O)N[C@@H](CC(=O)O)C(=O)N[C@@H](C(C)C)C(=O)N[C@@H](CCCCN)C(=O)N[C@@H](CC(C)C)C(=O)N[C@@H](CCCNC(=N)N)C(=O)N2)NC(=O)[C@@H]2CCCN2C(=O)[C@H](C(C)C)NC(=O)[C@H](CCC(N)=O)NC(=O)[C@H](CCC(N)=O)NC(=O)CNC1=O` [b3I], in data set [1], the “integrin binding specificity on K562 cell lines” value is “bound both K562-αIIbβ3 and K562-αvβ3 cells”. In addition, the “inhibition of platelet aggregation (in words)” value in the data set on human platelets (ADP-activated human platelets, comparison with eptifibatide) is listed as “slightly more effective”.

As for “Abciximab: αIIbβ3 integrin-specific antibody fragment c7E3”, the “blockage of αIIbβ3 integrin” value with αIIbβ3 integrin is reported as above 90%. Besides, the bleeding in patients entry in data set [2] was “bleeding issues in many patients”. In addition, the “persistence of the antibody in the patient” value in data set [2] (in spite of a 12-hour infusion) is “over two-thirds of the antibody persists in the patient for several weeks”. The “binding to other integrins” value in data set [3] is “also binds to αvβ3 integrin and the leukocyte integrin Mac-1”. In data set [4], the “inhibition of ADP-induced platelet aggregation” value is given as above 80%.

In the case of “GCIAEDYGRCTWGGTPCCRGRPCRCSGRGDNDLVCECT [AgTX-1-7A, AgRP 7A loop 4 grafted into AgTx consensus 1]”, the “binding to αvβ3 integrin on yeast surface” value in the data set with αvβ3 integrin is reported as “Binding was observed at 10 nM αvβ3”.

For the compound `N=C(N)NCCCC[C@@H]1NC(=O)CCSSC[C@@H](C(N)=O)NC(=O)[C@@H]2CCCN2C(=O)[C@H](Cc2c[nH]c3ccccc23)NC(=O)[C@H](CC(=O)O)NC(=O)CNC1=O` [eptifibatide, Mpr-Har-Gly-Asp-Trp-Pro-Cys, reference compound] ([Mpa][hArg]GDWPC-NH2; disulfide 1-7), the bleeding in patients result in data set [2] is on record as “no increases in bleeding have been reported”. Moreover, the values for the IC50 in the data set on human platelets and with human platelets (listed as Eptifibatide) were 94 ± 14 nM and 80 nM, respectively.

The term IC50 denotes the concentration that inhibits the measured activity by half.

(Values after patent publication US8778888B2, “Cystine knot peptides binding to alpha IIb beta 3 integrins and methods of use” (The Board of Trustees of the Leland Stanford Junior …, priority 2009, dated 2014).)
